We go through three compounds from US11286281B2, “Homodetic cyclic peptides targeting alpha-4-beta-7 integrin” (priority 2017, dated 2022).

This assay addresses T1, integrin α4β7 (Mus musculus, UniProt P26011+Q00651).
T1 construct: host or cells: TK-1 mouse T-cell lymphoma cells
T1 sequence (Q00651 41-1039): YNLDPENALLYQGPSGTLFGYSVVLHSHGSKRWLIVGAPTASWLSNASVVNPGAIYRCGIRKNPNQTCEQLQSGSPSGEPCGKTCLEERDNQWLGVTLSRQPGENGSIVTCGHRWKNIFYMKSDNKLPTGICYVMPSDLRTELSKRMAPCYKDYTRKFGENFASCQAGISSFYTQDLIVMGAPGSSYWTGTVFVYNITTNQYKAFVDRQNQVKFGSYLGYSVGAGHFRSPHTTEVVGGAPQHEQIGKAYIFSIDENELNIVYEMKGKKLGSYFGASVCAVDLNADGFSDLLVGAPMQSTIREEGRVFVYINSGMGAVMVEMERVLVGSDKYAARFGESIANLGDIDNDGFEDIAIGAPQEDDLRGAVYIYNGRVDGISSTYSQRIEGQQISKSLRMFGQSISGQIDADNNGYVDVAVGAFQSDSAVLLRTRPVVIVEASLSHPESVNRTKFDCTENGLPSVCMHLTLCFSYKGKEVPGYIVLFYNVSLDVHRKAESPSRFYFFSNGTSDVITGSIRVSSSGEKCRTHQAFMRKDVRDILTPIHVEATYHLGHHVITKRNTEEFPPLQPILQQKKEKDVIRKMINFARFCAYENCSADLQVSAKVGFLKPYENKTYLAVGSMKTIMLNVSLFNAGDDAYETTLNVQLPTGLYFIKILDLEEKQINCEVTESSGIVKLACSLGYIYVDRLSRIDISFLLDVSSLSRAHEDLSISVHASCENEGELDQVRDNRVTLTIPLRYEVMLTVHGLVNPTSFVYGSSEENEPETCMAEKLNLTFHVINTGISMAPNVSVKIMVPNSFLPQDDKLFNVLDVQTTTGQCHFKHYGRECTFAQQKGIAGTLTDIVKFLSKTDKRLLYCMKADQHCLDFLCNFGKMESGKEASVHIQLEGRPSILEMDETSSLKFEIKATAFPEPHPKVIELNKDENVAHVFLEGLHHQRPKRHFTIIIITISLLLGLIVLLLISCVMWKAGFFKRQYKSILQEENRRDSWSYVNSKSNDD
T1 sequence (P26011 20-806): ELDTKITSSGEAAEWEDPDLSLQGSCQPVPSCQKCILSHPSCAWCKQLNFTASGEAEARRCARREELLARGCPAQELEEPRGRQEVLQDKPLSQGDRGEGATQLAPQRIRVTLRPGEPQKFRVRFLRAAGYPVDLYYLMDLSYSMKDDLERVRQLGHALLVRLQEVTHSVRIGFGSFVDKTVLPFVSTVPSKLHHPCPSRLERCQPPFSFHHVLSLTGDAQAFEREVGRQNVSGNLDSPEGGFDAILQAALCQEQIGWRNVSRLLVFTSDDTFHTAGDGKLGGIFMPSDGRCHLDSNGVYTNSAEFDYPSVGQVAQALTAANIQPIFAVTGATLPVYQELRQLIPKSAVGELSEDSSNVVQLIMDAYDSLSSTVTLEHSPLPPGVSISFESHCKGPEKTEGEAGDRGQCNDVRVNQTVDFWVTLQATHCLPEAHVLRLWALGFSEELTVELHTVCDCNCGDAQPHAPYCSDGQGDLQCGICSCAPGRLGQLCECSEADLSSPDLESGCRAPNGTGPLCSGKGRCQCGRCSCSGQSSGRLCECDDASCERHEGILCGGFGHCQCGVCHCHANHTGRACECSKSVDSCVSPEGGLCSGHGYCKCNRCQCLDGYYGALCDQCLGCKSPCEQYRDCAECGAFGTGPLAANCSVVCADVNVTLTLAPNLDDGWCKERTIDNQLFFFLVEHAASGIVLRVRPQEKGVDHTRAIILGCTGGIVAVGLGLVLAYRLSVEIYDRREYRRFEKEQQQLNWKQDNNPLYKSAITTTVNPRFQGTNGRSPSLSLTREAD
Nature of the assay: Integrin α4β7-MAdCAM mouse cell adhesion assay (TK-1 cells). It is filed as cell-based. Conditions: for IC50: TK-1 cells, read-out: IC50 in mouse α4β7-containing cell adhesion. As to the method:
TK-1 mouse T-cells lymphoma cell lines (ATCC CRL2396) were cultured in RPMI 1640 medium (HyClone SH30027.1) supplemented with 10% FBS (Seradigm) and 1% Penicillin-Streptomycin. A 96-well plate (Costar, 3603) was coated with 100 μl/well of recombinant mouse MAdCAM-1 Fc Chimera (R&D Systems, 993-MC-050) solution at 0.25 μg/ml in coating buffer (50 mM sodium carbonate, pH 9.6). The plate was incubated overnight at 4° C. and washed twice with 150 μl per well wash buffer (0.05% Tween 20 in PBS), blocked with 250 μl per well blocking buffer (1% non-fat dry milk in PBS), and incubated for 2 hours at room temperature. TK-1 cells were resuspended at 10 million cells/ml in PBS containing […] and incubated at 37° C. for 30 min in a 50 ml tube. […] The plate was emptied by inverting and blotting on paper towels and washed manually twice with PBS. 100 μl PBS was then added to each well. The fluorescence was read (Ex495/Em515) using a plate reader (Tecan Infinite 1000). To calculate the dose response, the fluorescence value of control wells not containing cells was subtracted from each test well.

Numbered stars: 1 amine (or outer) side, 2 acyl side, 3 side chain; on linkers, the order of the positions; unused ones are H or OH. Square brackets hold non-standard residues; d marks the D form. Peptide text beside a SMILES is read from it. X1 = O=C(c1ccc(-c2ccc(N3CCNCC3)cc2)c(CN[*:1])c1)[*:2]

`CC(C)C[C@@H]1NC(=O)c2ccc(-c3ccc(N4CCNCC4)cc3)c(c2)CNC(=O)[C@@H]2CCCN2C(=O)[C@H](C)NC(=O)[C@H]([C@@H](C)O)NC(=O)[C@H](CC(=O)O)NC1=O` [Compound 8] (cyclo(P[X1]LDTA)): the “fold difference in IC50 between mouse α4β7-containing and human α4β7-containing cell adhesion” value (TK-1 versus RPMI8866, weaker in mouse) is on record as around 10 fold.
Turning to `CC(C)C[C@@H]1NC(=O)c2ccc(-c3ccc(N4CCN(C(=O)COCC(=O)N5CCN(c6ccc(-c7ccc8cc7CNC(=O)[C@@H]7CCCN7C(=O)[C@H](C)NC(=O)[C@H]([C@@H](C)O)NC(=O)[C@H](CC(=O)O)NC(=O)[C@H](CC(C)C)NC8=O)cc6)CC5)CC4)cc3)c(c2)CNC(=O)[C@@H]2CCCN2C(=O)[C@H](C)NC(=O)[C@H]([C@@H](C)O)NC(=O)[C@H](CC(=O)O)NC1=O` [Compound 17], the IC50 is around 97 nM.
Consider `CC(C)C[C@@H]1NC(=O)c2ccc(-c3ccc(N4CCN(Cc5cccc(CN6CCN(c7ccc(-c8ccc9cc8CNC(=O)[C@@H]8CCCN8C(=O)[C@H](C)NC(=O)[C@H]([C@@H](C)O)NC(=O)[C@H](CC(=O)O)NC(=O)[C@H](CC(C)C)NC9=O)cc7)CC6)c5)CC4)cc3)c(c2)CNC(=O)[C@@H]2CCCN2C(=O)[C@H](C)NC(=O)[C@H]([C@@H](C)O)NC(=O)[C@H](CC(=O)O)NC1=O` [Compound 18], for which the IC50 was around 68 nM.

A word on the IC50: it is the concentration needed to halve the response being measured.
